Assay results taken from patent US4725597A, “Bis(piperazinyl or homopiperazinyl)alkanes” (Boehringer Ingelheim Ltd., priority 1984, dated 1988).
pIC50: −log10 of the molar value. Counter-ions that a name gives are not always drawn.

Experiments:
[1] = system: human leukocytes (basophils); assay: Inhibition of histamine release from human leukocytes (basophils), Procedure A; format: cell-based; settings: Leukocyte, 1 h, rabbit anti-human IgE, 37° C., 60 minutes, (d) No response detected at highest dose indicated, read-out: In Vitro Inhibition of Histamine Release IC50, Procedure A
Experimental: A. Procedure for Determining Inhibition of Histamine Release from Human Leukocytes (Basophils) 1. Separation of Leukocytes: A modification of the method of L. Lichtenstein and A. Osler, J. Exp. Med. 120, 507 (1964) is used. Heparinized human blood (80-100 ml) is mixed with 20 ml of saline (0.2%) containing 0.6 gm of dextrose and 1.2 gm dextran in propylene centrifuge tubes. The mixture is kept at ambient temperature for 60-90 minutes to allow the separation of erythrocytes from the platelet-leukocyte-rich supernate. The supernate is removed and centrifuged for 8 minutes at 110×g in cold. The leukocyte pellet is washed twice with Tris buffer and finally suspended in 150-180 ml Tris-ACM buffer at 1-2×10^6 cells/ml. 2. Reaction Mixture: The reaction is carried out in 12×75 mm plastic tubes at a total volume of […]. The reaction medium includes 0.05 ml rabbit anti-human IgE (the antigen), 0.2 ml of the test compound in water at concentrations ranging from 10-100 μM, and 0.1 ml of the leukocyte suspension. The reaction mixture is incubated in a 37° C. shaking water bath for 60 minutes. Upon completion of the reaction, the tubes are centrifuged and the supernatants collected. The protein is removed from the supernatants by precipitation with 0.2 ml of 8% perchloric acid. 3. Histamine Assay: Histamine release is measured by the automated fluorometric method of W. Siraganian and W. Hook in Chapter 102 of the Manual of Clinical Immunology, 2nd Edition, edited by R. Rose and H. Friedman, published by the American Society for Microbiology, Washington, D.C. 1980. Percent inhibition is calculated as follows: [formula] The concentration which causes a 50 percent inhibition (IC50) of histamine release is interpolated from a plot of percent inhibition versus logarithm of drug concentration.

[2] = system: rat peritoneal mast cells; assay: Inhibition of histamine release from rat peritoneal mast cells, Procedure B; format: cell-based; settings: Mast cell, 1 h, sheep anti-rat IgE or ovalbumin, 37° C., 60 minutes, (d) No response detected at highest dose indicated, read-out: In Vitro Inhibition of Histamine Release IC50, Procedure B
Experimental: B. Procedure for Determining Inhibition of Histamine Release from Rat Peritoneal Mast Cells 1. Harvest of Peritoneal Mast Cells: After the rats are sacrificed with ether, 20 ml of Minimum Essential Medium (MEM) containing 20 units/ml heparin is injected into the peritoneum. The abdomen is massaged for one minute and the lavage fluid collected. The peritoneal cells are centrifuged at 1800 rpm for 8 minutes in cold. After two washes with Tris A buffer, the cells are resuspended in Tris ACM buffer at 2-4×10^6 cells/ml. 2. Reaction Mixture: The reaction is carried out in 12×75 mm plastic tubes at a total volume of 1.25 ml. The reaction mixture includes 0.5 ml (10-1000 μg) sheep anti-rat IgE or ovalbumin, 0.2 ml of the test compound in water at concentrations ranging from 10-1000 μM, […] phosphatidylserine solution (20-60 μg to each tube), and 0.5 ml of cell suspension. The reaction mixture is incubated in a 37° C. shaking water bath for 60 minutes. Upon completion of the reaction, the tubes are centrifuged and the supernatants collected. The protein is removed from the supernatants by precipitation with 0.2 ml of 8% perchloric acid. 3. Histamine Assay: Histamine release is measured by the automated fluorometric method of Siraganian, supra. The concentration which causes a 50% inhibition (IC50) of histamine release is computed as in Part A.

[3] = system: guinea pig basophils; assay: Inhibition of histamine release from guinea pig basophils, Procedure C; format: cell-based; settings: Cavia porcellus, 1 h, ovalbumin-sensitized, 37° C., 60 minutes, read-out: In Vitro Inhibition of Histamine Release IC50, Procedure C
Experimental: C. Procedure for Determining Inhibition of Histamine Release from Guinea Pig Basophils 1. In Vivo Sensitization: Male Hartley guinea pigs (200-300 gms) are immunized on day 0 with two 0.05 ml intradermal injections of 200 μg ovalbumin. Sensitized basophils are available between days 13-25 post-sensitization. This mode of sensitization favors IgE response. 2. Separation of Leukocytes: The method of Lett-Brown et al., Int. Arch. Allergy, Appl. Immun. 64, 241 (1981) is used. Animals are anesthetized with ether and are bled via cardiac puncture with plastic syringes containing sufficient EDTA to provide a final concentration of 10 mM. One part of 3% gelatin in saline at 37° C. is mixed with two parts of blood in a 16×150 mm tube. The cells are allowed to sediment at a 30° angle for 45 minutes in a 37° C. water bath. The leukocyte-rich plasma is collected and centrifuged at 150×g for 30 minutes at room temperature. The pelleted cells are washed in Hepes-buffered saline (HG) containing 4 mM EDTA and resuspended in Hepes-buffered saline containing Mg^++ and Ca^++ (HGCM) at 4-5×10^6 cells/ml. 3. Reaction Mixture: The reaction is carried out in 12×75 mm plastic tubes and a total volume of 1.2 ml which includes 0.5 ml of antigen, 0.2 ml of drug solution at concentrations ranging from 10-1000 μM and 0.5 ml of prewashed cell suspension. The reaction mixture is incubated in a 37° C. shaking water bath for 60 minutes. Upon completion of the reaction, the tubes are centrifuged and the supernatants collected. The protein is removed from the supernatants by precipitation with 0.2 ml of 8% perchloric acid. 4. Histamine Assay: Histamine release is measured by the automated fluorometric method of Siraganian, supra. The concentration which causes a 50 percent inhibition of Histamine release is computed as in Part A.

[4] = Solubility limit; settings: pH 7

pIC50 [1]	pIC50 [2]	Compound	pIC50 [3]	solubility [4]
4.77	5.00	O=C(CC(=O)N1CCN(Cc2ccc(Cl)cc2)CC1)N1CCN(Cc2ccc(Cl)cc2)CC1 [Example 15, 1,3-Bis[4-(4-chlorobenzyl)-1-piperazinyl]-1,3-dioxopropane dihydrochloride monohydrate]	4.31	–
4.96	5.70	Clc1ccc(CN2CCN(CCCN3CCN(Cc4ccc(Cl)cc4)CC3)CC2)cc1 [Example 1, 1,3-Bis[4-(4-chlorobenzyl)-1-piperazinyl]propane tetrahydrochloride]	4.46	–

Compound	pIC50 [1]	pIC50 [2]	pIC50 [3]	solubility [4]
Cl.Cl.Cl.Cl.Clc1ccc(CCCN2CCN(CCCN3CCN(CCCc4ccc(Cl)cc4)CC3)CC2)cc1.O [Example 24, 1,3 -Bis[4-(3-{4-chlorophenyl}propyl)-1-piperazinyl]propane tetrahydrochloride monohydrate]	5.70	5.70	5.05	1000 µg/mL
